According to patent US20220073536A1 (Rigel Pharmaceuticals, Inc., priority 2003, published 2022):

Experiments:
[1] = tested on: cultured human mast cells (CHMC); assay: CHMC low cell density IgE activation: tryptase assay; assay type: cell-based; settings: IgE activation
Outline: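 Low-density CHMC, 1000-1500 cells/well in MT; 1 hr 37 °C; anti-IgE challenge 30 min 37 °C; supernatant tryptase via fluorogenic substrate, 30 min RT.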

[2] = tested on: cultured human mast cells (CHMC); assay: CHMC low cell density ionomycin activation: tryptase assay; assay type: cell-based; settings: 3 pt, read-out: LD Tryptase, CHMC, Iono, 3 pt
[3] = low cell density CHMC, tryptase, 3 pt, read-out: LD Tryptase, CHMC, IgE, 3 pt
[4] = low cell density CHMC, tryptase
[5] = Homo sapiens, Mast cell, low cell density CHMC, tryptase, 3 pt, read-out: LD Tryptase, CHMC, IgE, 3 pt
[6] = Homo sapiens, Mast cell, low cell density CHMC, tryptase
[7] = Homo sapiens, Mast cell, low cell density, 3 pt, read-out: LD Tryptase, CHMC, IgE, 3 pt
[8] = Homo sapiens, Mast cell, low cell density
[9] = low cell density, 3 pt, read-out: LD Tryptase, CHMC, IgE, 3 pt
[10] = Homo sapiens, Mast cell, low cell density, 8 pt, read-out: LD Tryptase, CHMC, IgE, 8 pt

| Compound | IC50 [1, 7] [µM] | IC50 [2, 8] [µM] | other results |
| --- | --- | --- | --- |
| CNC(=O)COc1cccc(Nc2ncc(F)c(N(CC(=O)OC)c3ccc4c(c3)OCCO4)n2)c1 [Compound 446, N4-(3,4-Ethylenedioxyphenyl)-5-fluoro-N4-(methoxycarbonylmethyl)-N2-[3-(N-methylamino)carbonylmethyleneoxyphenyl]-2,4-pyrimidinediamine] | – | – | IC50 [1, 3]: < 10 µM; IC50 [2, 4]: > 10 µM |
| CNC(=O)COc1cccc(Nc2ncc(F)c(N(C)c3ccc(OC)c(OC)c3)n2)c1 [Compound 447, N4-(3,4-Dimethoxyphenyl)-5-fluoro-N4-methyl-N2-[3-(N-methylamino)carbonylmethyleneoxyphenyl]-2,4-pyrimidinediamine] | – | – | IC50 [1, 3]: < 10 µM; IC50 [2, 4]: > 10 µM |
| CNC(=O)c1cc(Nc2ncc(F)c(Nc3ccc4c(c3)OCCO4)n2)ccc1Cl [Compound 448] | – | – | IC50 [1, 5]: < 10 µM; IC50 ([1]; Homo sapiens, Mast cell, low cell density CHMC, tryptase, 8 pt, read-out: LD Tryptase, CHMC, IgE, 8 pt): < 10 µM; IC50 [2, 6]: > 10 µM |
| CNC(=O)c1cc(Nc2ncc(F)c(Nc3ccc(OC)c(OC)c3)n2)ccc1Cl [Compound 449, N2-[4-Chloro-3-(N-methylamino)carbonylphenyl]-N4-(3,4-dimethoxyphenyl)-5-fluoro-2,4-pyrimidinediamine] | – | – | IC50 [1, 5]: < 10 µM; IC50 [2, 6]: > 10 µM |
| CNC(=O)c1cc(Nc2ncc(F)c(Nc3cc(OC)cc(OC)c3)n2)ccc1Cl [Compound 450] | – | – | IC50 [1, 5]: < 10 µM; IC50 [2, 6]: > 10 µM |
| CNC(=O)c1cc(Nc2ncc(F)c(Nc3ccc(OC)c(Cl)c3)n2)ccc1Cl [Compound 451, N4-(3-Chloro-4-methoxyphenyl)-N2-[4-chloro-3-(N-methylamino)carbonylphenyl]-5-fluoro-2,4-pyrimidinediamine] | < 10 | < 10 | – |
| CCOC(=O)C(C)(C)Oc1ccc(Nc2nc(Nc3ccc(Cl)c(C(=O)NC)c3)ncc2F)cc1Cl [Compound 452, N4-[3-Chloro-4-(ethoxycarbonyl-1,1-dimethylmethyleneoxy)phenyl]-N2-[4-chloro-3-(N-methylamino)carbonylphenyl]-5-fluoro-2,4-pyrimidinediamine] | – | – | IC50 [1, 9]: < 10 µM; IC50 ([2]; low cell density): < 10 µM |
| CNC(=O)c1cc(Nc2ncc(F)c(N(C)c3ccc4c(c3)OCCO4)n2)ccc1Cl [Compound 453, N2-[4-Chloro-3-(N-methylamino)carbonylphenyl]-N4-(3,4-ethylenedioxyphenyl)-5-fluoro-N4-methyl-4-pyrimidinediamine] | – | – | IC50 [1, 9]: < 10 µM; IC50 ([2]; low cell density): > 10 µM |
| CNC(=O)c1cc(Nc2ncc(F)c(N(C)c3ccc(OC)c(OC)c3)n2)ccc1Cl [Compound 454, N2-[4-Chloro-3-(N-methylamino)carbonylphenyl]-N4-(3,4-dimethoxyphenyl)-5-fluoro-N4-methyl-4-pyrimidinediamine] | – | – | IC50 [1, 9]: < 10 µM; IC50 ([2]; low cell density): > 10 µM |
| CNC(=O)c1cc(Nc2ncc(F)c(Nc3ccc4c(c3)NC(=O)C(C)(C)O4)n2)ccc1Cl [Compound 455] | < 10 | > 10 | IC50 [1, 10]: < 10 µM |
| CNC(=O)c1ccc(Nc2ncc(F)c(Nc3ccc4c(c3)NC(=O)C(C)(C)O4)n2)cc1Cl [Compound 456, N2-[3-Chloro-4-(N-methylamino)carbonylphenyl]-N4-(2,2-dimethyl-3-oxo-4H-benz[1,4]oxazin-6-yl)-5-fluoro-2,4-pyrimidinediamine] | < 10 | < 10 | IC50 [1, 10]: < 10 µM |
| COc1cc(OC)cc(N(C)c2nc(Nc3ccc(OC)nc3OC)ncc2F)c1 [Compound 457] | < 10 | < 10 | IC50 [1, 10]: < 10 µM |
| COc1ccc(Nc2ncc(F)c(N(C)c3ccc4c(c3)OCCO4)n2)c(OC)n1 [Compound 458] | > 10 | > 10 | – |
| COc1cc(Nc2nc(Nc3ccc(OC)nc3OC)ncc2F)cc(OC)c1 [Compound 459] | < 10 | > 10 | – |
| COc1ccc(Nc2ncc(F)c(Nc3ccc4c(c3)OCCO4)n2)c(OC)n1 [Compound 460] | < 10 | > 10 | – |
| CNc1ncc(F)c(N(C)c2ccc3c(c2)OCCO3)n1 [Compound 461] | > 10 | > 10 | – |
| CN(C)c1ncc(F)c(N(C)c2ccc3c(c2)OCCO3)n1 [Compound 462, N2-Dimethyl-N4-(3,4-ethylenedioxyphenyl)-5-fluoro-N4-methyl-2,4-pyrimidinediamine] | – | – | IC50 [1, 9]: > 10 µM; IC50 ([2]; low cell density): > 10 µM |
| CCOC(=O)C(C)(C)Oc1ccc(Nc2nc(Nc3ccc(C(=O)NC)c(Cl)c3)ncc2F)cc1Cl [Compound 467, N4-[3-Chloro-4-(ethoxycarbonyl-1,1-dimethylmethyleneoxy)phenyl]-N2-[3-chloro-4-(N-methylamino)carbonylphenyl]-5-fluoro-2,4-pyrimidinediamine] | – | – | IC50 [1, 9]: < 10 µM; IC50 ([1]; low cell density, 8 pt, read-out: LD Tryptase, CHMC, IgE, 8 pt): < 10 µM; IC50 ([2]; low cell density): < 10 µM |
| CCOC(=O)C(C)(C)Oc1ccc(N(C)c2nc(Cl)ncc2F)cc1Cl [Compound 470, 2-Chloro-N4-[3-chloro-4-(ethoxycarbonyl-1,1-dimethylmethyleneoxy)phenyl]-5-fluoro-N4-methyl-4-pyrimidineamine] | – | – | IC50 [1, 9]: > 10 µM; IC50 ([2]; low cell density): < 10 µM |

The next lines start with results.

| IC50 [1, 7] [µM] | IC50 [2, 8] [µM] | Compound | other results |
| --- | --- | --- | --- |
| < 10 | > 10 | CNC(=O)c1ccc(Nc2ncc(F)c(Nc3ccc4c(c3)OCCO4)n2)cc1Cl [Compound 463] | IC50 [1, 10]: < 10 µM |
| < 10 | > 10 | CNC(=O)c1ccc(Nc2ncc(F)c(Nc3ccc(OC)c(OC)c3)n2)cc1Cl [Compound 464, N2-[3-Chloro-4-(N-methylamino)carbonylphenyl]-N4-(3,4-dimethoxyphenyl)-5-fluoro-2,4-pyrimidinediamine] | – |
| < 10 | > 10 | CNC(=O)c1ccc(Nc2ncc(F)c(Nc3cc(OC)cc(OC)c3)n2)cc1Cl [Compound 465] | – |
| < 10 | > 10 | CNC(=O)c1ccc(Nc2ncc(F)c(Nc3ccc(OC)c(Cl)c3)n2)cc1Cl [Compound 466] | IC50 [1, 10]: < 10 µM |
| < 10 | > 10 | CNC(=O)c1ccc(Nc2ncc(F)c(Nc3cccc(O)c3)n2)cc1Cl [Compound 468] | IC50 [1, 10]: < 10 µM |
| > 10 | > 10 | CN(c1ccc2c(c1)OCCO2)c1nc(NCCO)ncc1F [Compound 469, N4-(3,4-Ethylenedioxyphenyl)-5-fluoro-N2-(2-hydroxyethyl)-N4-methyl-2,4-pyrimidinediamine] | – |
| > 10 | > 10 | CC(C)Nc1ncc(F)c(N(C)c2ccc3c(c2)OCCO3)n1 [Compound 471, N4-(3,4-Ethylenedioxyphenyl)-5-fluoro-N2-isopropyl-N4-methyl-2,4-pyrimidinediamine] | – |
| < 10 | > 10 | COc1ccc(Nc2ncc(F)c(Nc3cccc(O)c3)n2)c(OC)n1 [Compound 472] | – |
| < 10 | > 10 | CNC(=O)c1ccc(Nc2ncc(F)c(N(C)c3ccc4c(c3)OCCO4)n2)cc1Cl [Compound 473, N2-[3-Chloro-4-(N-methylamino)carbonylphenyl]-N4-(3,4-ethylenedioxyphenyl)-5-fluoro-N4-methyl-2,4-pyrimidinediamine] | – |
| < 10 | > 10 | CNC(=O)c1ccc(Nc2ncc(F)c(N(C)c3ccc(OC)c(OC)c3)n2)cc1Cl [Compound 474, N2-[3-Chloro-4-(N-methylamino)carbonylphenyl]-N4-(3,4-dimethoxyphenyl)-5-fluoro-N4-methyl-2,4-pyrimidinediamine] | – |
